Source: patent publication US6939554B2, “Antimicrobial polymer” (Michigan Biotechnology Institute, priority 2002, dated 2005)

Test system: potential human pathogenic microorganisms
Assay: Antimicrobial activity assay, overall assessment across target microorganisms
Type: cell-based
Settings: among the seven antimicrobials tested, in the polymer coatings
Description: The selection of target microorganisms for examining the antimicrobial activity of the coated polydimethylsiloxane substrates produced in the Control Example and Examples 1-16 was based on the potential human pathogenic microorganisms, which include gram positive bacteria, Bacillus subtilis and Staphylococcus aureus; gram negative bacteria, E. coli and Pseudomonas aeruginosa; and yeast, Candida albicans. Broth cultures were prepared for each microorganism. Bacteria, Bacillus subtilis, Staphylococcus aureus, E. coli and Pseudomonas aeruginosa were grown in 50 milliliters of sterile tryptic soy broth in a 500 milliliter baffle flask at 200 rpm. The cultures were grown at 37° C. overnight, and used for antimicrobial activity assay plates and stock culture. The yeast, Candida albicans was cultivated in 50 milliliters of sterile yeast malt broth in a 250 milliliter baffle flask at 25-28° C. for 1 day and used for the activity assay plates and stock culture.
Antimicrobial activity assay plates were then prepared. Yeast malt agar and tryptic soy agar were autoclaved for 20 minutes. The sterile molten agar was allowed to cool to 42-45° C. The prepared broth cultures of the target microorganisms were inoculated to a final concentration of 5% (v/v). […]

Structure (SMILES): [H]/N=C(\N/C(=N/[H])NCCCCCCNC(=N)NC(=N)Nc1ccc(Cl)cc1)Nc1ccc(Cl)cc1 [chlorhexidine, 1,6-bi(N^5-p-chlorophenyl-N^1-biguanido)hexane]
- Antimicrobial activity: ability to suppress the colonization and spectrum of action (in words): high activity
